Measured values reported in patent publication US4576959A, “6-Substituted-4-dialkylaminotetrahydrobenz[c,d]indoles” (priority 1985, dated 1986).

Tests used:
[1] = test system: central serotonin (5HIAA in hypothalamus); assay: Decrease of serotonin metabolite 5HIAA in hypothalamus as a measure of central serotonin agonist activity; type: in vivo, Wistar rats; settings: 0.3 mg./kg. s.c., 1 hour before rats were killed; control 2.59 ± .11; * = statistically significant
Experimental: (§1) Secondly, as a measure of central serotonin agonist activity, the decrease of serotonin metabolites in brain was measured. Also the measure of dopamine agonist activity was indicated by changes in dopamine metabolites.
(§2) The following protocol was employed. 150-200 g. Wistar rats were given 0.3 mg./kg. subcutaneously of (±)-4-di-n-propylamino-6-substituted-1,3,4,5-tetrahydrobenz[c,d]indole.Then, 60 minutes later each rat was decapitated and the hypothalamus and striatum were dissected out and extracted. The amounts of homovanillic acid (HVA) and 3,4-dihydroxyphenylacetic acid (DOPAC) in the striatum and of 5-hydroxyindoleacetic acid (5HIAA) in the hypothalamus were measured by high-performance liquid chromatography, using electrochemical detection. Serum corticosteroids were also measured. In the table, columns 1 and 2 give the substitution pattern in the compounds of formula IV, columns 3-5, the 5HT or dopamine metabolite concentrations, and column 6, the serum corticosteroids.

[2] = biological target: T1, ^3 H-spiperone (^3 H-SPIP) receptor binding, cerebral cortex (Rattus norvegicus, UniProt P14842); assay: Inhibition of ^3 H-spiperone (^3 H-SPIP) specific binding in rat cerebral cortex membranes; set-up: species or system male Wistar rats; settings: ^3 H-spiperone 0.6-0.7 nM, 15 minutes at 37°, pH=7.4, values in nanomoles of inhibitor, read-out: ^3 H-Ligand-IC50, ^3 H-SPIP
T1 construct: The cerebral cortex was dissected out and then homogenized and centrifuged; from tissue; host or cells: cerebral cortex membranes of male Wistar rats
T1 sequence (P14842 whole entry): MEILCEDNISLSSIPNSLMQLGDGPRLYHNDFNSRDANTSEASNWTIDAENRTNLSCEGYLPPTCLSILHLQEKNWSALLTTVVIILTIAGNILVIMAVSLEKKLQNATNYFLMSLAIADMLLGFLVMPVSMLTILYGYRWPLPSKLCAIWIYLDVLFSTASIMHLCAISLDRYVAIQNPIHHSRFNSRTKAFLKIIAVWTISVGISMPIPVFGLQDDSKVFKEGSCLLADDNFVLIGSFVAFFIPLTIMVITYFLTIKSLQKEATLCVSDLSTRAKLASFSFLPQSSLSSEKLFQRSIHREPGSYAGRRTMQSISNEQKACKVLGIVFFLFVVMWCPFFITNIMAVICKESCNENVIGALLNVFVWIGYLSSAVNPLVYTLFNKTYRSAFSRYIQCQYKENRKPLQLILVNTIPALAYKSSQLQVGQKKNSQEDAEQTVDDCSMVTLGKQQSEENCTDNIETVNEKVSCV
Experimental: Brain tissue was obtained from 150-200 g. male Wistar rats. The cerebral cortex was dissected out and then homogenized and centrifuged according to the method described by Nelson and coworkers, Mol. Pharmacol., 14, 983-995 (1978), using preincubation in buffer without added monoamine oxidase inhibitor in order to eliminate endogenous serotonin. For receptor binding, each sample contained 300-400 μg. of membrane protein and 10 μM pargyline in addition to the ^3 H-ligand in 1 ml. of 0.05M tris buffer, pH=7.4. The assay of serotinin binding was done following the method of Bennett and Snyder, Mol. Pharmacol., 12, 373-389 (1976), and that for tritiated spiperone according to Peroutka and Snyder, Mol. Pharmacol., 16, 687-699 (1979). The samples were incubated for 15 minutes at 37° and were then filtered through GF/C glass fiber filter pads using a Brandel M-24 cell harvester modified for receptor binding. After two 5 ml. rinses, the filter discs were put into scintillation vials and counted in 10 ml. of Amersham PCS scintillation fluid. Nonspecific binding of ^3 H-serotonin (^3 H-5HT) was determined in the presence of 10^-5 M serotonin and of ^3 H-spiperone in the presence of 10^-6 M LSD. Specific binding was calculated as the difference between total binding with no added nonradioactive compound and the nonspecific binding.

[3] = biological target: ^3 H-serotonin (^3 H-5HT) receptor binding, cerebral cortex; assay: Inhibition of ^3 H-serotonin (^3 H-5HT) specific binding in rat cerebral cortex membranes; set-up: species or system male Wistar rats; settings: ^3 H-serotonin 2-3 nM, 15 minutes at 37°, pH=7.4, values in nanomoles of inhibitor, read-out: ^3 H-Ligand-IC50, ^3 H-5HT
[4] = Serum corticosteroids (corticosterone); type: in vivo, Wistar rats; settings: 0.3 mg./kg. s.c., 1 hour before rats were killed; control 7 ± 1; * = statistically significant
Experimental: as §2

[5] = test system: dopamine (metabolites in striatum); assay: Changes in dopamine metabolites (DOPAC, HVA) in striatum as a measure of dopamine agonist activity; type: in vivo, Wistar rats; settings: 0.3 mg./kg. s.c., 1 hour before rats were killed, * = statistically significant; for Dopamine Metabolites In Striatum, HVA: control 4.24 ± .27; for Dopamine Metabolites In Striatum, DOPAC: control 5.58 ± .38
Experimental: as §1, §2

[6] = test system: dopamine uptake in bovine striatal membrane; settings: cited from earlier work

| SMILES | 5HIAA In Hypothalamus [1] | IC50 [2] | IC50 [3] | Serum Corticosterone [4] | Dopamine Metabolites In Striatum, HVA [5] | Dopamine Metabolites In Striatum, DOPAC [5] | dopamine agonist action (inhibiting dopamine uptake in bovine striatal membrane in vitro) [6] |
| --- | --- | --- | --- | --- | --- | --- | --- |
| CCCN(CCC)C1Cc2c[nH]c3ccc(C#N)c(c23)C1 (racemic) [(±)-4-Di-n-propylamino-6-cyano-1,3,4,5-tetrahydrobenz[c,d]indole] | 2.34 ± .07 NMoles/G | 390 nM | 90 nM | 47 ± 4 MCG/100 ML | 2.27 ± .16 NMoles/G | 4.25 ± .25 NMoles/G | – |
| CCCN(CCC)C1Cc2c[nH]c3ccc([N+](=O)[O-])c(c23)C1 (racemic) [(±)-4-Di-n-propylamino-6-nitro-1,3,4,5-tetrahydrobenz[c,d]indole] | 2.29 ± .03 NMoles/G | 400 nM | 100 nM | 49 ± 2 MCG/100 ML | 2.02 ± .20 NMoles/G | 3.74 ± .11 NMoles/G | – |
| CCCN(CCC)C1Cc2c[nH]c3ccc(C(N)=O)c(c23)C1 (racemic) [(±)-4-Di-n-propylamino-6-carbamoyl-1,3,4,5-tetrahydrobenz[c,d]indole] | 1.58 ± .03 NMoles/G | 4980 nM | 60 nM | 49 ± 2 MCG/100 ML | 4.12 ± .27 NMoles/G | 6.23 ± .56 NMoles/G | – |
| CCCN(CCC)C1Cc2cccc3[nH]cc(c23)C1 (racemic) [(±)-4-(di-n-propyl)amino-1,3,4,5-tetrahydrobenz[c,d]indole] | – | – | – | – | – | – | selective dopamine agonist |
